Laboratory results as given in PMC5756575, “In Vitro Biotransformation, Safety, and Chemopreventive Action of Novel 8-Methoxy-Purine-2,6-Dione Derivatives” (Applied Biochemistry and Biotechnology, 2017).
Where two headings read alike, the source gives them in different places.

Experiments:
Vibrio harveyi BB7XM = format: cell-based; settings: compound 40 ng/mL + NQNO 40 ng/mL; for Number of revertants per plate, Mean ± SD: antimutagenicity, NQNO line = NQNO as a single compound
Description: (§1) Four Vibrio harveyi strains were used in this study: a wild-type BB7 (naturally found in the Baltic Sea) and three genetically modified strains, namely BB7M (obtained by the introduction of pAB1273 plasmid containing the genes mucA and mucB to enhance the error-prone DNA repair), BB7X (hypersensitive to UV radiation after genetic modification with Tn5TpMCS), and BB7XM (containing the two abovementioned modifications). These strains were kindly provided by Prof. G. Węgrzyn (Department of Molecular Biology, University of Gdańsk, Poland).
(§2) It causes point mutations at the genome as it induces G:C → A:T transitions in Vibrio harveyi strains and in other bacteria such as Escherichia coli and S. typhimurium. […] Next, its working solution was prepared in sterile water, being 40 ng/mL its final concentration.
(§3) Procedure followed in the V. harveyi antimutagenicity assay was similar to the mutagenicity method described before. […] The results were expressed as the inhibition percentage of mutagenic effect, which was calculated with the formula: 100 − [(R 1/R 2) × 100], where R 1 is the number of revertants per plate in the presence of both mutagen and tested substance, and R 2 is the number of revertants per plate in the presence of mutagen. […] S. typhimurium antimutagenicity assay was based on similar assumptions as the V. harveyi antimutagenicity test. In this case, the chemopreventive activity was determined at two concentrations of a tested compounds and a standard mutagen, i.e., 40 and 500 ng/mL.

Vibrio harveyi BB7X = test: Vibrio harveyi antimutagenicity assay against NQNO, BB7X; format: cell-based; settings: compound 40 ng/mL + NQNO 40 ng/mL; for Number of revertants per plate, Mean ± SD: antimutagenicity, NQNO line = NQNO as a single compound
Description: as §1, §2, §3

Vibrio harveyi BB7 [1] = test: Vibrio harveyi antimutagenicity assay against NQNO, BB7; format: cell-based; settings: for % inhibition of NQNO mutagenicity / Number of revertants per plate, Mean ± SD: BB7, compound 40 ng/mL + NQNO 40 ng/mL; for Number of revertants per plate, Mean ± SD: antimutagenicity, NQNO line = NQNO as a single compound; for chemopreventive (antimutagenic) effect, class: wild BB7 strain, against NQNO
Description: as §1, §2, §3

Vibrio harveyi BB7M = test: Vibrio harveyi antimutagenicity assay against NQNO, BB7M; format: cell-based; settings: compound 40 ng/mL + NQNO 40 ng/mL; for Number of revertants per plate, Mean ± SD: antimutagenicity, NQNO line = NQNO as a single compound
Description: as §1, §2, §3

[2] = system: Cunninghamella blakesleeana 1908 DMS; test: Cunninghamella biotransformation assay, C. blakesleeana; format: in vitro ADME; settings: 7-day incubation; for % of compound/metabolite in C. blakesleeana: 0.5 mg/mL, LC-MS/MS; for % of tested (parental) compound metabolized at the end of experiment: C. blakesleeana
Method: (§4) Three different strains of Cunninghamella were used: Cunninghamella echinulata NRRL 1384, Cunninghamella blakesleeana 1908 DMS, and Cunninghamella elegans 1906 DMS. The first was provided by Dr. A.J. Carnell (University of Liverpool, UK), whereas the two remaining were purchased from Deutsche Sammlung von Mikroorganismen und Zellkulturen GmbH (DMSZ, Braunschweig, Germany).
(§5) Cunninghamella strains were cultivated on solid potato dextrose agar (PDA) plates at 28 °C. After 4 days, a liquid fermentation basal medium was prepared by the addition of 6 g of D-glucose, 1.5 g of NaCl, 1.5 g of yeast extract from Saccharomyces cerevisiae, and 1.5 g of K2HPO4 to 300 mL of distilled water. Aliquots of 24.5 mL of medium were inoculated with 300 μL of suspension of fungal spores obtained after wetting colonies in PDA. The fungi were incubated with shaking until the formation of spherical clumps.
(§6) Compounds 2–4 were evaluated in this experiment. Once microorganisms formed spherical clumps in the preliminary incubation, the corresponding tested compound was added to the broth and the mixture was incubated for 7 days. Two control experiments were also performed, in the absence of compound and fungus, respectively. Biotransformation progress was monitored by TLC and by liquid chromatography electrospray ionization-tandem mass spectrometry (LC-MS/MS). Monitoring was performed at four different incubation times: 30 min, 3 days, 5 days, and 7 days.
(§7) To analyze metabolites in LC-MS/MS, an aliquot of 500 μL of filtered sample was taken and extracted with 500 μL of dichloromethane. The organic fraction was dried with sodium sulfate, filtered, and evaporated. The obtained residue was analyzed in LC-MS/MS. At the end of experiment, all the remaining medium was extracted with 25 mL of dichloromethane after separating the fungal clumps by filtration over cellulose filters.
Agilent 1100 HPLC system (Agilent Technologies, Waldbronn, Germany) equipped with a Xbridge™ C18 analytical column (2.1 × 30 mm, […]; Waters, Dublin, Ireland) was used in the chromatographic separation of LC-MS/MS analysis. An elution gradient of acetonitrile and water, with 0.1% of formic acid, was used as a mobile phase. MS spectra were taken at Applied Biosystems MDS Sciex API 200 triple quadrupole mass analyzer (Concord, Ontario, Canada) with an electrospray ionization (ESI) interface between HPLC and MS.

[3] = system: Salmonella typhimurium TA100; test: Ames mutagenicity test; format: cell-based
Method: From them, 0.2 mM working solutions were prepared by dilution with water. […]
In the Ames test, Salmonella typhimurium TA100 strain was used. This strain has a base-pair substitution that can be reverted by mutations at GC pairs. In addition, it contains mutations at uvrB-bio and rfa genes to eliminate excision repair mechanisms and to make the bacteria more permeable to chemicals, respectively. Finally, TA100 also includes pKM101 plasmid, which enhances both chemical and UV-induced mutagenesis via an increase in the error-prone recombinational DNA repair pathway. TA100 strain of S. typhimurium was provided by Dr. T. Nohmi (Division of Genetics and Mutagenesis, National Institute of Hygienic Sciences, Tokyo, Japan). V. harveyi and S. typhimurium bacterial cultures were maintained at 30 and 37 °C, respectively.
It causes point mutations at the genome as it induces G:C → A:T transitions in Vibrio harveyi strains and in other bacteria such as Escherichia coli and S. typhimurium. […]
S. typhimurium was cultivated in a fresh medium 12 h prior to a test. To perform mutagenicity assay, 100 μL of an overnight culture (containing approx. 1 × 10^8 to 2 × 10^8 bacteria) were inoculated along with 50 μL of a tested compound in 2 mL of top agar supplemented with traces of histidine and of biotin. Then the mixture was added over the surface of GM agar plates and was left incubating 48 h at 37 °C. Afterwards, the colonies were counted manually.

Vibrio harveyi BB7 [4] = settings: BB7, 40 ng/mL; for MI (mutagenicity index): mutagenic if MI above 2.0; for Number of revertants per plate, Mean ± SD: mutagenicity
Method: From them, 0.2 mM working solutions were prepared by dilution with water. […] Working solutions were prepared by 1:100 dilution of stock solution in water, and final compound concentration assayed was 40 ng/mL.
as §1, §2
To perform the V. harveyi mutagenicity test, 10 μL of a working solution of the tested compound (100 μg/mL) were added to V. harveyi bacterial culture (OD600 = 0.1) in NaCl-containing BOSS liquid medium, being 40 ng/mL the final concentration of the tested compound. […] Then, an inoculum containing 5 × 10^6 cells was added to solid BOSS agar plate supplemented with neomycin sulfate at a final concentration of 100 μg/mL. Samples were left incubating 48 h at 30 °C, and revertant colonies were counted manually.

Cunninghamella strains = test: Cunninghamella biotransformation assay, three strains together and blank without fungus; format: in vitro ADME; settings: blank: control in the absence of fungus, 7-day incubation
Method: as §4, §5, §6, §7
Agilent 1100 HPLC system (Agilent Technologies, Waldbronn, Germany) equipped with a Xbridge™ C18 analytical column (2.1 × 30 mm, […]; Waters, Dublin, Ireland) was used in the chromatographic separation of LC-MS/MS analysis. […]

[5] = TA100, 40 ng/mL, mutagenic if MI >2.0
[6] = TA100, 500 ng/mL (NQNO control stated as 40 ng/mL in method)

SMILES | Number of revertants per plate, Mean ± SD (Vibrio harveyi BB7XM) | % inhibition of NQNO mutagenicity (Vibrio harveyi BB7XM) [%] | Number of revertants per plate, Mean ± SD (Vibrio harveyi BB7X) | % inhibition of NQNO mutagenicity (Vibrio harveyi BB7X) [%] | % inhibition of NQNO mutagenicity (Vibrio harveyi BB7 [1]) [%] | Number of revertants per plate, Mean ± SD (Vibrio harveyi BB7 [1]) | chemopreventive (antimutagenic) effect, class (Vibrio harveyi BB7 [1]) | Number of revertants per plate, Mean ± SD (Vibrio harveyi BB7M) | % inhibition of NQNO mutagenicity (Vibrio harveyi BB7M) [%] | % of compound/metabolite in C. blakesleeana [2] [%] | % of tested (parental) compound metabolized at the end of experiment [2] [%] | Number of revertants per plate, Mean ± SD ([3]; TA100, 40 ng/mL) | MI (mutagenicity index) [3, 5] | MI (mutagenicity index) [3, 6] | Number of revertants per plate, Mean ± SD [3, 6] | MI (mutagenicity index) (Vibrio harveyi BB7 [4]) | Number of revertants per plate, Mean ± SD (Vibrio harveyi BB7 [4]) | % of compound/metabolite in blank (Cunninghamella strains) [%]
COc1nc2c(c(=O)n(C)c(=O)n2C)n1CCCC(=O)NCc1ccccc1 [Compound 3, N-benzyl-4-(8-methoxy-1,3-dimethyl-2,6-dioxo-purin-7-yl)butanamide] | 65 ± 7 | 15 | 45 ± 9 | 58 | 29 | 38 ± 9 | moderate or a close to moderate | 48 ± 8 | 50 | 95.4 | 4.6 | 53 ± 11 | 1.5 | 0.2 | 6 ± 3 | 1.4 | 18 ± 6 | 100.0
COc1nc2c(c(=O)n(C)c(=O)n2C)n1CCCC(=O)N1CCN(c2ccccc2)CC1 [Compound 4, 8-methoxy-1,3-dimethyl-7-[4-oxo-4-(4-phenylpiperazin-1-yl)butyl]purine-2,6-dione] | 70 ± 7 | 9 | 47 ± 10 | 56 | 53 | 26 ± 6 | strong (higher than 40%) | 50 ± 9 | 49 | 33.3 | 66.6 | 48 ± 7 | 1.3 | 0.4 | 10 ± 1 | 0.8 | 10 ± 4 | 100.0
